Experimental data taken from US20120157421A1, “17Beta-Alkyl-17Alpha-oxy-estratrienes” (BAYER PHARMA AKTIENGESELLSCHAFT, priority 2009, published 2012).

How the values were obtained:
[1] = metabolic stability in human liver microsomes; assay type: in vitro ADME; conditions: estimated maximum oral bioavailability from human liver microsome incubation; 0.3 μM, 0.5 mg/ml protein, 37° C., 60 min
Method: The metabolic stability of test substances was determined by incubations in a suspension with human liver microsomes adjusted to a protein content of 0.5 mg/ml, at a concentration of 0.3 μM. The incubation volume was 3.03 ml, where 2.4 ml of a microsome suspension in phosphate buffer at pH 7.4 (sodium phosphate buffer 100 mM (NaH2PO4×H2O+Na2HPO4×2H2O) were initially charged, which were activated by addition of 0.6 ml of a cofactor mix (consisting of 1.2 mg of NADP, 3 IU of glucose 6-phosphate dehydrogenase, 14.6 mg of glucose 6-phosphate and 4.9 mg of MgCl2 in phosphate buffer, pH 7.4). The assay was started by addition of 30 μL of a test substance stock solution, where the composition of the stock solution was such that the solvent concentrations during the incubation were <0.2% for DMSO and <1% for methanol. The incubations were carried out at an incubation temperature of 37° C. over a period of 60 minutes, during which time the microsomes were kept in a homogeneous suspension by continuous stirring (Tec Control Shaker RS 485 at 300 rpm). At 6 different points in time (2, 8, 16, 30, 45 & 60 min), aliquots of in each case 250 μl were removed and immediately added to the same volume of ice-cold methanol and covered.
The decrease in concentrations over time were used to determine the half-life of the test substance in the microsomal incubation mixture described above, which in turn was used to calculate the “intrinsic clearance”, the maximum liver microsome rate for the metabolic elimination of the test substance. This “intrinsic clearance” for its part can be used together with various physiological parameters to estimate the maximum metabolic clearance in man, where the principle mentioned above is only capable of representing phase I metabolic reactions (typically: oxidoreductive reactions of Zytochrom P450 enzymes or flavin monooxigenase, and also hydrolytic reactions of esterases and amidases). Physiological parameters are: human liver blood flow: 1.3 l/kg/h; specific liver weight (per kg of body weight): 21 g/kg; microsomal protein content: 40 mg/g of liver. Furthermore, assuming that (i) the resorption of the test substance in humans is 100%, and (ii) the estimated metabolic clearance can be calculated as first pass, a maximum oral bioavailability (Fmax) was estimated.
Formulae & brief illustrations: CL intrinsic-apparent [in ml/(min*mg of protein)]: reflects the elimination constant kel (in min-1) of the test substance in the incubation mixture, divided by the microsomal protein content ([…]). CL intrinsic [in l(h*kg)]: maximum capability of the liver (microsomes) for metabolic elimination of the test substance, unless the liver blood flow is the limiting factor (kel*liver weight)/liver proportion (microsomal content) in the incubation. CL blood-well stirred [in l/(h*kg)]: estimated blood clearance (via Phase 1 metabolism): (QH*CL intrinsic)/(QH+CL intrinsic). Fmax [in %]: maximum bioavailability after oral administration of the test substance: (1-CL blood-well stirred/QH)*100.

[2] = tested on: uterus growth in rats with simultaneous administration of oestradiol benzoate (EB); experiment: uterus growth test in infant rats, p.o. (test for antioestrogen action); assay type: in vivo, rat; conditions: inhibition of uterus growth relative to EB control; infant female rats; 0.5 μg EB/0.1 ml s.c. plus test compound p.o. in the range of 0.03 mg/kg body weight, once daily for three days
Method: To examine the efficacy of the compounds according to the invention, in vivo tests with infant rats were carried out. To this end, the growth of the uterus with peroral administration (p.o.) of the pharmaceutical was examined (test for antioestrogen action).
The principle of this method is to investigate the effect of an administration of compounds having antioestrogen action with simultaneous administration of oestrogens. In rodents, the administration of oestrogens results in an increased weight of the uterus (both by proliferation and by hydropexia). This growth can be inhibited in a dosage-related manner by simultaneous administration of compounds with antioestrogen action.
For the tests, infant female rats having a weight of 35-45 g were examined at the start of the experiment. Five to six animals per dose were tested. For the p.o. administration, the substances were dissolved in one part of ethanol (E) and made up with nine parts of peanut oil (PO). For acclimatization, the young rats just dropped by the mothers were delivered one day before the start of the treatment and immediately supplied with food—right in the cage. For three days, the animals were then treated in combination with 0.5 μg of oestradiol benzoate (EB) once per day. EB was always administrated subcutaneously (s.c.), whereas the test substance was administered p.o. 24 hours after the last administration, the animals were weighed and killed, and the uteri were removed. The moist weights (less contents) of the prepared uteri were determined. The following control studies were carried out: for a negative control, 0.2 ml of an E/PO mixture was administered per animal and day. […]
For each group, the means with standard deviation (X±SD) and the significance of the differences to the control group (EB) of the relative organ weights (mg/100 g of body weight) were determined in the Dunnett test (p<0.05). The inhibition (in %) relative to the EB control was determined using a calculation programme. The relative efficacy of the test substances was calculated by covariance and regression analysis.

Compound	Fmax (micros.) [%] [1]	Inhibition [%] [2]
CN(CCCCCCCC(F)(F)C(F)(F)F)CCCCCC1Cc2c(ccc(O)c2Cl)C2[C@@H]1C1CC[C@@](C)(O)[C@@]1(C)C[C@@H]2F (stereo partly drawn) [Example 4, 4-Chloro-11β-fluoro-17β-methyl-7α-[5-[methyl(8,8,9,9,9-pentafluorononyl)amino]pentyl]-oestra-1,3,5(10)-triene-3,17α-diol]	39%	
C[C@]1(O)CCC2[C@@H]3C(CCCCCN4CCC[C@H]4CCCCCC(F)(F)C(F)(F)F)Cc4cc(O)ccc4C3[C@@H](F)C[C@@]21C (stereo partly drawn) [Example C3, 11β-Fluoro-17α-methyl-7α-[5-[(2R)-2-(6,6,7,7,7-pentafluoroheptyl)-1-pyrrolidinyl]pentyl]oestra-1,3,5(10)-triene-3,17β-diol, reference compound]	8%	
C[C@]12C[C@H](F)C3c4ccc(O)c(Cl)c4CC(CCCCCN4CCC[C@H]4CCCCCC(F)(F)C(F)(F)F)[C@H]3C1CC[C@@]2(C)O (stereo partly drawn) [Example 9, 4-Chloro-11β-fluoro-17β-methyl-7α-[5-[(2R)-2-(6,6,7,7,7-pentafluoroheptyl)-1-pyrrolidinyl]pentyl]oestra-1,3,5(10)-triene-3,17α-diol]	42%	
C[C@]12C[C@H](F)C3c4ccc(O)cc4CC(CCCCCN4CCC[C@H]4CCCCCCC(F)(F)C(F)(F)F)[C@H]3C1CC[C@@]2(C)O (stereo partly drawn) [Example 2, 11β-Fluoro-17β-methyl-7α-[5-[(2R)-2-(7,7,8,8,8-pentafluorooctyl)-1-pyrrolidinyl]pentyl]-oestra-1,3,5(10)-triene-3,17α-diol]	36%	70%
C[C@]12C[C@H](F)C3c4cc(Cl)c(O)c(Cl)c4CC(CCCCCN4CCC[C@H]4CCCCCCC(F)(F)C(F)(F)F)[C@H]3C1CC[C@@]2(C)O (stereo partly drawn) [Example 10, 2,4-Dichloro-11β-fluoro-17β-methyl-7α-[5-[(2R)-2-(7,7,8,8,8-pentafluorooctyl)-1-pyrrolidinyl]pentyl]oestra-1,3,5(10)-triene-3,17α-diol]	34%	
C[C@]12C[C@H](F)C3c4ccc(O)c(Br)c4CC(CCCCCN4CCC[C@H]4CCCCCCC(F)(F)C(F)(F)F)[C@H]3C1CC[C@@]2(C)O (stereo partly drawn) [Example 6, 4-Bromo-11β-fluoro-17β-methyl-7α-[5-[(2R)-2-(7,7,8,8,8-pentafluorooctyl)-1-pyrrolidinyl]pentyl]oestra-1,3,5(10)-triene-3,17α-diol]	34%	
C[C@]12C[C@H](F)C3c4ccc(O)cc4CC(CCCCCN4CCC[C@H]4CCCCCC(F)(F)C(F)(F)F)[C@H]3C1CC[C@@]2(C)O (stereo partly drawn) [Example 3, 11β-Fluoro-17β-methyl-7α-[5-[(2R)-2-(6,6,7,7,7-pentafluoroheptyl)-1-pyrrolidinyl]pentyl]oestra-1,3,5(10)-triene-3,17α-diol]	40%	40%
CN(CCCCCCCC(F)(F)C(F)(F)F)CCCCCC1Cc2cc(O)ccc2C2[C@@H]1C1CC[C@@](C)(O)[C@@]1(C)C[C@@H]2F (stereo partly drawn) [Example 1, [5-(11β-Fluoro-3,17α-dihydroxy-17β-methyloestra-1,3,5(10)-trien-7α-yl)pentyl](methyl)(8,8,9,9,9-pentafluorononyl)amine]	39%	42-59%
C[C@]1(O)CCC2[C@@H]3C(CCCCCN4CCC[C@H]4CCCCCCC(F)(F)C(F)(F)F)Cc4cc(O)ccc4C3[C@@H](F)C[C@@]21C (stereo partly drawn) [Example C2, 11β-Fluoro-17α-methyl-7α-[5-[(2R)-2-(7,7,8,8,8-pentafluorooctyl)-1-pyrrolidinyl]pentyl]-oestra-1,3,5(10)-triene-3,17β-diol, reference compound]	9%	
CN(CCCCCCCC(F)(F)C(F)(F)F)CCCCCC1Cc2c(ccc(O)c2Br)C2[C@@H]1C1CC[C@@](C)(O)[C@@]1(C)C[C@@H]2F (stereo partly drawn) [Example 5, 4-Bromo-11β-fluoro-17β-methyl-7α-[5-[methyl(8,8,9,9,9-pentafluorononyl)amino]pentyl]oestra-1,3,5(10)-triene-3,17α-diol]	55%	
C[C@]12C[C@H](F)C3c4ccc(O)c(Br)c4CC(CCCCCN4CCC[C@H]4CCCCCC(F)(F)C(F)(F)F)[C@H]3C1CC[C@@]2(C)O (stereo partly drawn) [Example 8, 4-Bromo-11β-fluoro-17β-methyl-7α-[5-[(2R)-2-(6,6,7,7,7-pentafluoroheptyl)-1-pyrrolidinyl]pentyl]oestra-1,3,5(10)-triene-3,17α-diol]	48%	
CN(CCCCCCCC(F)(F)C(F)(F)F)CCCCCC1Cc2cc(O)ccc2C2[C@@H]1C1CC[C@](C)(O)[C@@]1(C)C[C@@H]2F (stereo partly drawn) [Example C1, 11β-Fluoro-17α-methyl-7α-[5-[methyl(8,8,9,9,9-pentafluorononyl)amino]pentyl]oestra-1,3,5(10)-triene-3,17β-diol, reference compound]	9%	
C[C@]12C[C@H](F)C3c4ccc(O)c(Cl)c4CC(CCCCCN4CCC[C@H]4CCCCCCC(F)(F)C(F)(F)F)[C@H]3C1CC[C@@]2(C)O (stereo partly drawn) [Example 7, 4-Chloro-11β-fluoro-17β-methyl-7α-[5-[(2R)-2-(7,7,8,8,8-pentafluorooctyl)-1-pyrrolidinyl]pentyl]oestra-1,3,5(10)-triene-3,17α-diol]	47%	
